From PubChem BioAssay AID493118 (Broad Institute, 2011)

System: Vibrio harveyi MM32, AI-2 induced luminescence, 5 h
Assay: inhibitors of AI-2-induced luminescence in V. harveyi MM32, dose response, mechanism study for V. harveyi quorum sensing inhibitors, strain MM32, dry powder (AID 493118)

SMILES | AC50
C=Cn1c(C(=O)O)ccc1-c1ccc(CC)cc1 | 2140 nM
COc1cc(NC(=O)CN2C(=O)NC(c3ccccc3)(c3ccccc3)C2=O)cc(OC)c1 | 615 nM
Cn1cnc(S(=O)(=O)Nc2ccc(OC(F)(F)F)cc2)c1 | 1950 nM
Cc1cccc(NS(=O)(=O)c2ccc(Oc3ccccc3)cc2)n1 | 898 nM
CCc1ccc(S(=O)(=O)Nc2ccc(Br)cn2)cc1 | 1400 nM
O=C1C=C/C(=C/Br)O1 | 4330 nM
